The values below come from the supplement of paper PMC11208160.

A short description of the data set: recombinant UMI read abundance after kanamycin selection (control-corrected) (log10(CPM+1)); higher = more efficient recombination; extreme values may be limits of the assay; sequences stand for … in AGTGCAGAGAAAATCGGCCAGTTTTCTCTGCCTGCAGTCCGCATGCCGTGGGACCCCTTGGGTTCTAACCTGTTGCCTAGATTTATGCAGCGGACTGCCTTTCTCCCAAAGTGATAAACCGG…AGGTTGGTTTCACT; site = the 11-nt donor. The method in brief: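 In a pooled Escherichia coli screen for the IS621 bridge recombinase, donor and donor-binding-loop pairs were each placed with a 12-nt UMI on a plasmid bearing a promoterless kanamycin gene. This library was co-electroporated with a target plasmid encoding a fixed target and T7-inducible recombinase, and cells were plated either on IPTG (0.07 mM) plus kanamycin or without selection, in two replicates each. Recombinant UMIs were PCR-amplified across the donor–target junction and sequenced, and counts were converted to CPM, averaged over replicates, scaled by control-derived factors and reported as log10(CPM+1).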
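Further: IS621 bridge recombinase in Escherichia coli cells against a fixed T5 target plasmid.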

As for “CCGCTTACATGGACCGGTTTTCCCGGTAATCCGTATTTGCT (site CCGTTTACTAG)”, the “recombinant UMI read abundance (log10)” value turned out to be 0. “CCGCTTCCATGGACCGGTTTTCCCGGTAATCCGTATTTGTC (site CCGCTTCCTGA)”: the “recombinant UMI read abundance (log10)” value turned out to be 0.

Consider “CCGCTTTCATGGACCGGTTTTCCCGGTAATCCGTATTTGAG (site CCGCTTTCTCT)”, for which the “recombinant UMI read abundance (log10)” value was 0.19.

Consider “CCGGAAACATGGACCGGTTTTCCCGGTAATCCGTATTTGTT (site CCGGAAACTAA)”, for which the “recombinant UMI read abundance (log10)” value amounted to 1.15.

“CCGGATCCATGGACCGGTTTTCCCGGTAATCCGTATTTGTT (site CCGGATCCTAA)”: the “recombinant UMI read abundance (log10)” value came out at 0.556.

Take “CCGGATCCATGGACCGGTTTTCCCGGTAATCCGTATTTGTT (site CGGAATCCTAA)”: the “recombinant UMI read abundance (log10)” value was found to be 0.00344. Next, “CCGGCTACATGGACCGGTTTTCCCGGTAATCCGTATTTGAT (site CCGGCTACTAT)”: 1.37; “CCGGGGCCATGGACCGGTTTTCCCGGTAATCCGTATTTGAT (site CCGGGGCCTAT)”: 0.04.

Take “CCGGGTGCATGGACCGGTTTTCCCGGTAATCCGTATTTGAT (site CCAGGTGCTAT)”: the “recombinant UMI read abundance (log10)” value worked out at 1.63. As for “CCGGGTGCATGGACCGGTTTTCCCGGTAATCCGTATTTGAT (site CCCGGTGCTAT)”, the “recombinant UMI read abundance (log10)” value was 0.797. On to “CCGGGTGCATGGACCGGTTTTCCCGGTAATCCGTATTTGAT (site CCGGGTGCTAT)”, for which the “recombinant UMI read abundance (log10)” value was determined as 1.25. In the case of “CCGGGTGCATGGACCGGTTTTCCCGGTAATCCGTATTTGAT (site CCTGGTGCTAT)”, the “recombinant UMI read abundance (log10)” value stood at 0.428. Regarding “CCGGGTTCATGGACCGGTTTTCCCGGTAATCCGTATTTGGC (site CCGGGTTCTGC)”, the “recombinant UMI read abundance (log10)” value was found to be 1.57. “CCGTCAACATGGACCGGTTTTCCCGGTAATCCGTATTTGCT (site CCGTCAACTAG)”: the “recombinant UMI read abundance (log10)” value amounted to 0. Consider “CCGTCGCCATGGACCGGTTTTCCCGGTAATCCGTATTTGTC (site CCGTCGCCTGA)”, for which the “recombinant UMI read abundance (log10)” value was 0. In the case of “CCGTTACCATGGACCGGTTTTCCCGGTAATCCGTATTTGAG (site CCGTTACCTCT)”, the “recombinant UMI read abundance (log10)” value is 0.0156. Regarding “CCGTTAGCATGGACCGGTTTTCCCGGTAATCCGTATTTGAG (site CCGTTAGCTCA)”, the “recombinant UMI read abundance (log10)” value amounted to 0.0714. In the case of “CCGTTAGCATGGACCGGTTTTCCCGGTAATCCGTATTTGAG (site CCGTTAGCTCC)”, the “recombinant UMI read abundance (log10)” value was determined as 0.006. As to “CCGTTAGCATGGACCGGTTTTCCCGGTAATCCGTATTTGAG (site CCGTTAGCTCG)”, the “recombinant UMI read abundance (log10)” value amounted to 0.00749. Next, “CCGTTAGCATGGACCGGTTTTCCCGGTAATCCGTATTTGAG (site CCGTTAGCTCT)”: 0.692. Turning to “CCGTTCGCATGGACCGGTTTTCCCGGTAATCCGTATTTGTG (site CCGTTAGCTCA)”, the “recombinant UMI read abundance (log10)” value was 0.00765. For “CCGTTCGCATGGACCGGTTTTCCCGGTAATCCGTATTTGTG (site CCGTTCGCTCA)”, the “recombinant UMI read abundance (log10)” value was 0.0261. “CCGTTCGCATGGACCGGTTTTCCCGGTAATCCGTATTTGTG (site CCGTTGGCTCA)”: the “recombinant UMI read abundance (log10)” value turned out to be 0.0144.

“CCGTTCGCATGGACCGGTTTTCCCGGTAATCCGTATTTGTG (site CCGTTTGCTCA)”: the “recombinant UMI read abundance (log10)” value came out at 0.00651. Under “CCGTTGGCATGGACCGGTTTTCCCGGTAATCCGTATTTGTG (site CCGTTAGCTCA)” stands 0.661. For “CCGTTGGCATGGACCGGTTTTCCCGGTAATCCGTATTTGTG (site CCGTTCGCTCA)”, the “recombinant UMI read abundance (log10)” value is 0.0171. Regarding “CCGTTGGCATGGACCGGTTTTCCCGGTAATCCGTATTTGTG (site CCGTTGGCTCA)”, the “recombinant UMI read abundance (log10)” value amounted to 0.286.

With “CCGTTGGCATGGACCGGTTTTCCCGGTAATCCGTATTTGTG (site CCGTTTGCTCA)”, the “recombinant UMI read abundance (log10)” value stood at 0.00375. Under “CCGTTGTCATGGACCGGTTTTCCCGGTAATCCGTATTTGTC (site CCGTTGTCTGA)” stands 0; under “CCGTTTACATGGACCGGTTTTCCCGGTAATCCGTATTTGAT (site CCGTTTACTAA)”, 0.0556. For the sequence “CCGTTTACATGGACCGGTTTTCCCGGTAATCCGTATTTGAT (site CCGTTTACTAC)”, the “recombinant UMI read abundance (log10)” value is 0. Next, “CCGTTTACATGGACCGGTTTTCCCGGTAATCCGTATTTGAT (site CCGTTTACTAG)”: 0; “CCGTTTACATGGACCGGTTTTCCCGGTAATCCGTATTTGAT (site CCGTTTACTAT)”: 0. Next, “CCTAAAGCATGGACCGGTTTTCCCGGTAATCCGTATTTGAA (site CCTAAAGCTAT)”: 0. For “CCTAAAGCATGGACCGGTTTTCCCGGTAATCCGTATTTGAA (site CCTAAAGCTCT)”, the “recombinant UMI read abundance (log10)” value stood at 0.00343. Next, “CCTAAAGCATGGACCGGTTTTCCCGGTAATCCGTATTTGAA (site CCTAAAGCTGT)”: 0. Take “CCTAAAGCATGGACCGGTTTTCCCGGTAATCCGTATTTGAA (site CCTAAAGCTTT)”: the “recombinant UMI read abundance (log10)” value stood at 0.699. For the sequence “CCTAAAGCATGGACCGGTTTTCCCGGTAATCCGTATTTGTT (site CCTAAAGCTAA)”, the “recombinant UMI read abundance (log10)” value came out at 0.0032. For “CCTAAAGCATGGACCGGTTTTCCCGGTAATCCGTATTTGTT (site CCTAAAGCTAC)”, the “recombinant UMI read abundance (log10)” value amounted to 0. Regarding “CCTAAAGCATGGACCGGTTTTCCCGGTAATCCGTATTTGTT (site CCTAAAGCTAG)”, the “recombinant UMI read abundance (log10)” value came out at 0. As to “CCTAAAGCATGGACCGGTTTTCCCGGTAATCCGTATTTGTT (site CCTAAAGCTAT)”, the “recombinant UMI read abundance (log10)” value came to 0.00347. Take “CCTAACACATGGACCGGTTTTCCCGGTAATCCGTATTTGGC (site CCTAAAACTGC)”: the “recombinant UMI read abundance (log10)” value worked out at 0.

In the case of “CCTAACACATGGACCGGTTTTCCCGGTAATCCGTATTTGGC (site CCTAACACTGC)”, the “recombinant UMI read abundance (log10)” value was 0. For “CCTAACACATGGACCGGTTTTCCCGGTAATCCGTATTTGGC (site CCTAAGACTGC)”, the “recombinant UMI read abundance (log10)” value was 0. For “CCTAACACATGGACCGGTTTTCCCGGTAATCCGTATTTGGC (site CCTAATACTGC)”, the “recombinant UMI read abundance (log10)” value was determined as 0.

Regarding “CCTAACGCATGGACCGGTTTTCCCGGTAATCCGTATTTGAT (site CCTAAAGCTAT)”, the “recombinant UMI read abundance (log10)” value stood at 0. Under “CCTAACGCATGGACCGGTTTTCCCGGTAATCCGTATTTGAT (site CCTAACGCTAT)” stands 0.

On to “CCTAACGCATGGACCGGTTTTCCCGGTAATCCGTATTTGAT (site CCTAAGGCTAT)”, for which the “recombinant UMI read abundance (log10)” value was 0.

Turning to “CCTAACGCATGGACCGGTTTTCCCGGTAATCCGTATTTGAT (site CCTAATGCTAT)”, the “recombinant UMI read abundance (log10)” value is 0. For the sequence “CCTAATCCATGGACCGGTTTTCCCGGTAATCCGTATTTGGC (site CCTAATACTGC)”, the “recombinant UMI read abundance (log10)” value is 0.

For “CCTAATCCATGGACCGGTTTTCCCGGTAATCCGTATTTGGC (site CCTAATCCTGC)”, the “recombinant UMI read abundance (log10)” value worked out at 0. Under “CCTAATCCATGGACCGGTTTTCCCGGTAATCCGTATTTGGC (site CCTAATGCTGC)” stands 0; under “CCTAATCCATGGACCGGTTTTCCCGGTAATCCGTATTTGGC (site CCTAATTCTGC)”, 0. With “CCTACAACATGGACCGGTTTTCCCGGTAATCCGTATTTGAA (site CCTACAACTTT)”, the “recombinant UMI read abundance (log10)” value is 0.0165. For “CCTACTACATGGACCGGTTTTCCCGGTAATCCGTATTTGGC (site CCTAATACTGC)”, the “recombinant UMI read abundance (log10)” value was 0. For the sequence “CCTACTACATGGACCGGTTTTCCCGGTAATCCGTATTTGGC (site CCTACTACTGC)”, the “recombinant UMI read abundance (log10)” value was 0. Take “CCTACTACATGGACCGGTTTTCCCGGTAATCCGTATTTGGC (site CCTAGTACTGC)”: the “recombinant UMI read abundance (log10)” value is 0. As to “CCTACTACATGGACCGGTTTTCCCGGTAATCCGTATTTGGC (site CCTATTACTGC)”, the “recombinant UMI read abundance (log10)” value came out at 0.

Regarding “CCTACTTCATGGACCGGTTTTCCCGGTAATCCGTATTTGAT (site CCTACTTCTAT)”, the “recombinant UMI read abundance (log10)” value amounted to 0. Regarding “CCTATACCATGGACCGGTTTTCCCGGTAATCCGTATTTGCG (site CCTATACCTCG)”, the “recombinant UMI read abundance (log10)” value was determined as 0.0152. As to “CCTATAGCATGGACCGGTTTTCCCGGTAATCCGTATTTGAT (site CCTAAAGCTAT)”, the “recombinant UMI read abundance (log10)” value was determined as 0. “CCTATAGCATGGACCGGTTTTCCCGGTAATCCGTATTTGAT (site CCTACAGCTAT)”: the “recombinant UMI read abundance (log10)” value stood at 0. As to “CCTATAGCATGGACCGGTTTTCCCGGTAATCCGTATTTGAT (site CCTAGAGCTAT)”, the “recombinant UMI read abundance (log10)” value was found to be 0.0174.

Regarding “CCTATAGCATGGACCGGTTTTCCCGGTAATCCGTATTTGAT (site CCTATAGCTAT)”, the “recombinant UMI read abundance (log10)” value was 0.00747. As for “CCTATTACATGGACCGGTTTTCCCGGTAATCCGTATTTGGC (site CCTAATACTGC)”, the “recombinant UMI read abundance (log10)” value was 0. As to “CCTATTACATGGACCGGTTTTCCCGGTAATCCGTATTTGGC (site CCTACTACTGC)”, the “recombinant UMI read abundance (log10)” value was found to be 0.

Turning to “CCTATTACATGGACCGGTTTTCCCGGTAATCCGTATTTGGC (site CCTAGTACTGC)”, the “recombinant UMI read abundance (log10)” value amounted to 0. Under “CCTATTACATGGACCGGTTTTCCCGGTAATCCGTATTTGGC (site CCTATTACTGC)” stands 0.
